Legend:
Assay in all cases: relative viability (nuclei count vs DMSO), 5 days (fraction); higher = more cells survive
[1] = compound: O=C(CCCCCCC(=O)Nc1ccccc1)NO [Vorinostat] + Nc1ncn([C@H]2C[C@H](O)[C@@H](CO)O2)c(=O)n1 [Decitabine] (partner 2 µM)
Method in brief: (§1)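 For relative viability, nuclei counts in treated wells were divided by those in vehicle wells. Lung cancer cell lines had been pin-tool dosed in 1536-well plates the day after seeding and cultured for 5 days, then fixed and stained in one step (final 0.05% Triton X-100, 1% formaldehyde, 1 ug/ml Hoechst) and imaged at 4×. Doses were one drug alone or a fixed anchor-drug dose plus five library-drug doses (not always all listed) in √10 steps, and values are duplicate-plate medians.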

[2] = compound: O=C(CCCCCCC(=O)Nc1ccccc1)NO [Vorinostat] + Cc1nc(Nc2ncc(C(=O)Nc3c(C)cccc3Cl)s2)cc(N2CCN(CCO)CC2)n1 [Dasatinib] (partner 0.075 µM)
Method in brief: as §1

[3] = compound: O=C(CCCCCCC(=O)Nc1ccccc1)NO [Vorinostat] + C[C@]1(O)C[C@@H](c2nc(-c3ccc4ccc(-c5ccccc5)nc4c3)c3c(N)nccn32)C1 [Linsitinib] (partner 1 µM)
Method in brief: as §1

[4] = compound: O=C(CCCCCCC(=O)Nc1ccccc1)NO [Vorinostat] + Cc1cc(Nc2cc(N3CCN(C)CC3)nc(Sc3ccc(NC(=O)C4CC4)cc3)n2)n[nH]1 [Tozasertib] (partner 0.1 µM)
Method in brief: as §1

[5] = compound: O=C(CCCCCCC(=O)Nc1ccccc1)NO [Vorinostat] + CC(=O)c1c(C)c2cnc(Nc3ccc(N4CCNCC4)cn3)nc2n(C2CCCC2)c1=O [Palbociclib] (partner 0.5 µM)
Method in brief: as §1

## BEN
[1]; first compound 0.253 µM
  relative viability: 0.838
[1]; first compound 0.8 µM
  relative viability: 0.55
[1]; first compound 2.53 µM
  relative viability: 0.236
[1]; first compound 8 µM
  relative viability: 0.143
[2]; first compound 0.253 µM
  relative viability: 0.306
[2]; first compound 0.8 µM
  relative viability: 0.233
[2]; first compound 2.53 µM
  relative viability: 0.157
[2]; first compound 8 µM
  relative viability: 0.06
[3]; first compound 0.253 µM
  relative viability: 0.985
[3]; first compound 0.8 µM
  relative viability: 0.543
[3]; first compound 2.53 µM
  relative viability: 0.156
[3]; first compound 8 µM
  relative viability: 0.0466
[4]; first compound 0.253 µM
  relative viability: 0.463
[4]; first compound 0.8 µM
  relative viability: 0.441
[4]; first compound 2.53 µM
  relative viability: 0.248
[4]; first compound 8 µM
  relative viability: 0.0886
[5]; first compound 0.253 µM
  relative viability: 0.433
[5]; first compound 0.8 µM
  relative viability: 0.455
[5]; first compound 2.53 µM
  relative viability: 0.301
[5]; first compound 8 µM
  relative viability: 0.155

## NCI-H1755
[1]; first compound 0.253 µM
  relative viability: 0.703
[1]; first compound 0.8 µM
  relative viability: 0.773
[1]; first compound 2.53 µM
  relative viability: 0.44
[1]; first compound 8 µM
  relative viability: 0.213
[2]; first compound 0.253 µM
  relative viability: 0.447
[2]; first compound 0.8 µM
  relative viability: 0.469
[2]; first compound 2.53 µM
  relative viability: 0.254
[2]; first compound 8 µM
  relative viability: 0.139
[3]; first compound 0.253 µM
  relative viability: 1.07
[3]; first compound 0.8 µM
  relative viability: 1.05
[3]; first compound 2.53 µM
  relative viability: 0.512
[3]; first compound 8 µM
  relative viability: 0.188
[4]; first compound 0.253 µM
  relative viability: 0.613
[4]; first compound 0.8 µM
  relative viability: 0.51
[4]; first compound 2.53 µM
  relative viability: 0.319
[4]; first compound 8 µM
  relative viability: 0.179
[5]; first compound 0.253 µM
  relative viability: 0.431
[5]; first compound 0.8 µM
  relative viability: 0.463
[5]; first compound 2.53 µM
  relative viability: 0.3
[5]; first compound 8 µM
  relative viability: 0.209

## NCI-H322M
[1]; first compound 0.253 µM
  relative viability: 0.679
[1]; first compound 0.8 µM
  relative viability: 1.1
[1]; first compound 2.53 µM
  relative viability: 0.622
[1]; first compound 8 µM
  relative viability: 0.373
[2]; first compound 0.253 µM
  relative viability: 0.286
[2]; first compound 0.8 µM
  relative viability: 0.268
[2]; first compound 2.53 µM
  relative viability: 0.255
[2]; first compound 8 µM
  relative viability: 0.264
[3]; first compound 0.253 µM
  relative viability: 1.04
[3]; first compound 0.8 µM
  relative viability: 1.01
[3]; first compound 2.53 µM
  relative viability: 0.51
[3]; first compound 8 µM
  relative viability: 0.275
[4]; first compound 0.253 µM
  relative viability: 0.51
[4]; first compound 0.8 µM
  relative viability: 0.496
[4]; first compound 2.53 µM
  relative viability: 0.381
[4]; first compound 8 µM
  relative viability: 0.298
[5]; first compound 0.253 µM
  relative viability: 0.487
[5]; first compound 0.8 µM
  relative viability: 0.445
[5]; first compound 2.53 µM
  relative viability: 0.418
[5]; first compound 8 µM
  relative viability: 0.356

## NCI-H1651
[1]; first compound 0.253 µM
  relative viability: 0.58
[1]; first compound 0.8 µM
  relative viability: 0.477
[1]; first compound 2.53 µM
  relative viability: 0.202
[1]; first compound 8 µM
  relative viability: 0.0686
[2]; first compound 0.253 µM
  relative viability: 0.415
[2]; first compound 0.8 µM
  relative viability: 0.195
[2]; first compound 2.53 µM
  relative viability: 0.0466
[2]; first compound 8 µM
  relative viability: 0.0608
[3]; first compound 0.253 µM
  relative viability: 1.01
[3]; first compound 0.8 µM
  relative viability: 0.762
[3]; first compound 2.53 µM
  relative viability: 0.0741
[3]; first compound 8 µM
  relative viability: 0.0616
[4]; first compound 0.253 µM
  relative viability: 0.609
[4]; first compound 0.8 µM
  relative viability: 0.326
[4]; first compound 2.53 µM
  relative viability: 0.153
[4]; first compound 8 µM
  relative viability: 0.0653
[5]; first compound 0.253 µM
  relative viability: 0.545
[5]; first compound 0.8 µM
  relative viability: 0.494
[5]; first compound 2.53 µM
  relative viability: 0.154
[5]; first compound 8 µM
  relative viability: 0.0594

## NCI-H727
[1]; first compound 0.253 µM
  relative viability: 0.902
[1]; first compound 0.8 µM
  relative viability: 0.82
[1]; first compound 2.53 µM
  relative viability: 0.707
[1]; first compound 8 µM
  relative viability: 0.522
[2]; first compound 0.253 µM
  relative viability: 0.486
[2]; first compound 0.8 µM
  relative viability: 0.423
[2]; first compound 2.53 µM
  relative viability: 0.262
[2]; first compound 8 µM
  relative viability: 0.206
[3]; first compound 0.253 µM
  relative viability: 0.236
[3]; first compound 0.8 µM
  relative viability: 0.351
[3]; first compound 2.53 µM
  relative viability: 0.15
[3]; first compound 8 µM
  relative viability: 0.289
[4]; first compound 0.253 µM
  relative viability: 0.545
[4]; first compound 0.8 µM
  relative viability: 0.56
[4]; first compound 2.53 µM
  relative viability: 0.315
[4]; first compound 8 µM
  relative viability: 0.362
[5]; first compound 0.253 µM
  relative viability: 0.688
[5]; first compound 0.8 µM
  relative viability: 0.633
[5]; first compound 2.53 µM
  relative viability: 0.606
[5]; first compound 8 µM
  relative viability: 0.51

## NCI-H23
[1]; first compound 0.253 µM
  relative viability: 0.299
[1]; first compound 0.8 µM
  relative viability: 0.241
[1]; first compound 2.53 µM
  relative viability: 0.139
[1]; first compound 8 µM
  relative viability: 0.155
[2]; first compound 0.253 µM
  relative viability: 0.922
[2]; first compound 0.8 µM
  relative viability: 0.671
[2]; first compound 2.53 µM
  relative viability: 0.41
[2]; first compound 8 µM
  relative viability: 0.0961
[3]; first compound 0.253 µM
  relative viability: 0.866
[3]; first compound 0.8 µM
  relative viability: 0.711
[3]; first compound 2.53 µM
  relative viability: 0.21
[3]; first compound 8 µM
  relative viability: 0.124
[4]; first compound 0.253 µM
  relative viability: 0.275
[4]; first compound 0.8 µM
  relative viability: 0.269
[4]; first compound 2.53 µM
  relative viability: 0.105
[4]; first compound 8 µM
  relative viability: 0.124
[5]; first compound 0.253 µM
  relative viability: 0.696
[5]; first compound 0.8 µM
  relative viability: 0.622
[5]; first compound 2.53 µM
  relative viability: 0.154
[5]; first compound 8 µM
  relative viability: 0.137
